Measured values reported in PubChem BioAssay (NCI).
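Following 48 hours of exposure in 96-well plates, responses at five concentrations were used to interpolate endpoints linearly. TGI is the concentration that stops growth completely.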

What was measured:
Assay in all cases: inhibition of tumour cell growth, NCI panel, 48 h
[1] = system: SK-MEL-5 melanoma
[2] = system: SNB-19 CNS
[3] = system: PC-3 prostate
[4] = system: SK-OV-3 ovarian
[5] = system: OVCAR-4 ovarian
[6] = system: MCF7 breast
[7] = system: EKVX NSCLC
[8] = system: NCI-H23 lung
[9] = system: A498 renal
[10] = system: NCI-H460 lung
[11] = system: MOLT-4 leukemia
[12] = system: UACC-257 melanoma
[13] = system: ACHN renal

Row | Compound | TGI [1] [µM] | TGI [2] [µM] | TGI [3] [µM] | TGI [4] [µM] | TGI [5] [µM] | TGI [6] [µM] | TGI [7] [µM] | TGI [8] [µM] | TGI [9] [µM] | TGI [10] [µM] | TGI [11] [µM] | TGI [12] [µM] | TGI [13] [µM]
1 | Cn1c(N/N=C/c2ccc(Cl)cc2)nc(-c2ccc(Cl)cc2)c(C#N)c1=O | > 100 | > 100 | 90.1 | > 100 | 61.7 | 67.8 | 68.4 | 38.6 | 93.5 | > 100 | > 100 | > 100 | > 100
2 | Clc1ccc(-c2nc(-c3ccc(Cl)cc3)[s+]s2)cc1 | > 100 | > 100 | > 100 | > 100 | 98.9 | > 100 | > 100 | > 100 | > 100 | > 100 | > 100 | > 100 | > 100
3 | Cc1nn(-c2ccccc2)c(C)c1/C=N/NC(=O)c1sc(=S)n(-c2ccccc2)c1N | > 100 | > 100 | > 100 | > 100 | 8.74 | > 100 | 8.17 | > 100 | 59.3 | 16.3 | > 100 | > 100 | 4.32
4 | CC1(C)CCOC(=O)C(Cl)CC1Cl (configuration not stated) | > 100 | > 100 | > 100 | > 100 | > 100 | > 100 | > 100 | > 100 | > 100 | > 100 | > 100 | > 100 | > 100
5 | Clc1ccc(OCc2nnc(CCCCCCCCc3nnc(COc4ccc(Cl)cc4Cl)o3)o2)c(Cl)c1 | > 100 | > 100 | > 100 | > 100 | > 100 | > 100 | > 100 | > 100 | > 100 | > 100 | > 100 | > 100 | > 100
6 | Fc1cccc2nc(-c3ccccc3)cc(OCc3ccccc3)c12 | > 100 | > 100 | > 100 | > 100 | > 100 | > 100 | > 100 | > 100 | > 100 | > 100 | > 100 | > 100 | > 100
7 | O=[N+]([O-])C(=C(NCc1ccccc1)NCc1ccccc1)C(Cl)=C(Cl)Cl | 36 | > 100 | > 100 | > 100 | > 100 | > 100 | > 100 | 96.9 | > 100 | > 100 | 52 | 82.4 | 55.9
8 | Nc1cc(CO)cc(Nc2c3ccccc3nc3occc23)c1 | 58.9 | > 100 | > 100 | > 100 | 54.5 | 66 | > 100 | 71.7 | > 100 | 64.3 | 50.1 | > 100 | > 100
9 | CN(C)c1ccc(C(c2ccc(N(C)C)cc2)c2ccc([N+](=O)[O-])cc2)cc1 | > 100 | > 100 | > 100 | > 100 | > 100 | > 100 | > 100 | > 100 | > 100 | > 100 | > 100 | > 100 | > 100
10 | CC1=Nn2c(nc3sc4c(c3c2=O)CCCC4)SC1 | > 100 | > 100 | > 100 | > 100 | > 100 | > 100 | > 100 | > 100 | > 100 | > 100 | > 94.6 | > 100 | > 100
11 | NNC(=O)c1ccccc1NC(=O)/C(=C/c1ccccc1)NC(=O)c1ccccc1 | > 100 | > 100 | > 100 | > 100 | > 100 | > 100 | > 100 | > 100 | > 100 | > 100 | > 100 | > 100 | > 100
12 | COc1cccc(C2c3cc4c(cc3OC(N3CCOCC3)C2C)OCO4)c1O (configuration not stated) | 18.4 | 36.4 | > 58.6 | 75.6 | > 100 | > 44.2 | 98.9 | 52.6 | 20.8 | 20.4 | 42.2 | > 83.3 | 72
13 | COc1ccc2nc3c([N+](=O)[O-])ccc4c3c(c2c1)NCCN4C | 2.86 | 8.77 | 4.54 | 9.23 | 3.57 | 8.75 | 6.61 | 6.39 | 3.85 | 1.48 | 27 | 10.1 | 5.92
14 | CC1=C(C#N)S(=O)(=O)c2c(oc(C)c2C)N1 | > 100 | > 100 | > 100 | > 100 | > 100 | > 100 | > 100 | > 100 | > 100 | > 100 | > 100 | > 100 | > 100
